Test results as given in PubChem BioAssay (NCI).
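Exposure lasted 48 hours, with cells grown in 96-well plates and compounds tested at five concentrations. Here, GI50 denotes the concentration required for 50% inhibition of growth. TGI denotes the concentration required for complete inhibition of growth.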

What was measured:
Assay in all cases: growth of human tumour cells (NCI), 48 h
NCI/ADR-RES ovarian = test system: NCI/ADR-RES ovarian
M14 melanoma = test system: M14 melanoma
SK-OV-3 ovarian = test system: SK-OV-3 ovarian
U251 CNS = test system: U251 CNS
SF-295 CNS = test system: SF-295 CNS
HT29 colon = test system: HT29 colon
CCRF-CEM leukemia = test system: CCRF-CEM leukemia
RPMI-8226 leukemia = test system: RPMI-8226 leukemia
SN12C renal = test system: SN12C renal
IGROV1 ovarian = test system: IGROV1 ovarian
EKVX NSCLC = test system: EKVX NSCLC
PC-3 prostate = test system: PC-3 prostate
BT-549 breast = test system: BT-549 breast
UACC-62 melanoma = test system: UACC-62 melanoma
DU-145 prostate = test system: DU-145 prostate
SR leukemia = test system: SR leukemia
K-562 leukemia = test system: K-562 leukemia
SK-MEL-2 melanoma = test system: SK-MEL-2 melanoma
MDA-MB-435 = test system: MDA-MB-435
OVCAR-5 ovarian = test system: OVCAR-5 ovarian
HL-60(TB) leukemia = test system: HL-60(TB) leukemia
OVCAR-4 ovarian = test system: OVCAR-4 ovarian
TK-10 renal = test system: TK-10 renal
A549 NSCLC = test system: A549 NSCLC
RXF 393 renal = test system: RXF 393 renal
MALME-3M melanoma = test system: MALME-3M melanoma
CAKI-1 renal = test system: CAKI-1 renal
UACC-257 melanoma = test system: UACC-257 melanoma
HOP-92 NSCLC = test system: HOP-92 NSCLC
HCC-2998 colon = test system: HCC-2998 colon
COLO 205 colon = test system: COLO 205 colon
SF-539 CNS = test system: SF-539 CNS
786-0 renal = test system: 786-0 renal
MCF7 breast = test system: MCF7 breast
MOLT-4 leukemia = test system: MOLT-4 leukemia
OVCAR-8 ovarian = test system: OVCAR-8 ovarian
KM12 colon = test system: KM12 colon
NCI-H522 lung = test system: NCI-H522 lung
LOX IMVI melanoma = test system: LOX IMVI melanoma
HCT-15 colon = test system: HCT-15 colon
T-47D breast = test system: T-47D breast
SNB-75 CNS = test system: SNB-75 CNS
NCI-H226 lung = test system: NCI-H226 lung
SK-MEL-5 melanoma = test system: SK-MEL-5 melanoma
NCI-H460 lung = test system: NCI-H460 lung
NCI-H23 lung = test system: NCI-H23 lung
HCT-116 colon = test system: HCT-116 colon
ACHN renal = test system: ACHN renal
HOP-62 NSCLC = test system: HOP-62 NSCLC
OVCAR-3 ovarian = test system: OVCAR-3 ovarian
MDA-MB-231 breast = test system: MDA-MB-231 breast
A498 renal = test system: A498 renal
SK-MEL-28 melanoma = test system: SK-MEL-28 melanoma
SF-268 CNS = test system: SF-268 CNS
SNB-19 CNS = test system: SNB-19 CNS
SW-620 colon = test system: SW-620 colon
UO-31 renal = test system: UO-31 renal
HS 578T breast = test system: HS 578T breast

COc1ccc(C2C(C#N)=C(N)Oc3c2sc2c(C)cccc32)cc1 (stereo unspecified)
GI50 (NCI/ADR-RES ovarian): 0.332 µM | TGI (NCI/ADR-RES ovarian): 5.75 µM | GI50 (M14 melanoma): 0.304 µM | TGI (M14 melanoma): 13.4 µM | GI50 (SK-OV-3 ovarian): 0.613 µM | TGI (SK-OV-3 ovarian): 41.7 µM | GI50 (U251 CNS): 0.489 µM | TGI (U251 CNS): 16 µM | GI50 (SF-295 CNS): 0.293 µM | TGI (SF-295 CNS): 2.4 µM | GI50 (HT29 colon): 0.816 µM | TGI (HT29 colon): 12.7 µM | GI50 (CCRF-CEM leukemia): 0.341 µM | TGI (CCRF-CEM leukemia): > 64.8 µM | GI50 (RPMI-8226 leukemia): 0.384 µM | TGI (RPMI-8226 leukemia): 5.53 µM | GI50 (SN12C renal): 0.578 µM | TGI (SN12C renal): 11.3 µM | GI50 (IGROV1 ovarian): 0.449 µM | TGI (IGROV1 ovarian): 14.5 µM | GI50 (EKVX NSCLC): 0.677 µM | TGI (EKVX NSCLC): 21.3 µM | GI50 (PC-3 prostate): 0.346 µM | TGI (PC-3 prostate): 13 µM | GI50 (BT-549 breast): 0.956 µM | TGI (BT-549 breast): 7.83 µM | GI50 (UACC-62 melanoma): 0.375 µM | TGI (UACC-62 melanoma): 11.9 µM | GI50 (DU-145 prostate): 0.596 µM | TGI (DU-145 prostate): 18.6 µM | GI50 (SR leukemia): 0.215 µM | TGI (SR leukemia): 15 µM | GI50 (K-562 leukemia): 0.119 µM | TGI (K-562 leukemia): > 100 µM | GI50 (SK-MEL-2 melanoma): 3.33 µM | TGI (SK-MEL-2 melanoma): 26.5 µM | GI50 (MDA-MB-435): 0.188 µM | TGI (MDA-MB-435): 0.441 µM | GI50 (OVCAR-5 ovarian): 0.636 µM | TGI (OVCAR-5 ovarian): 14.2 µM | GI50 (HL-60(TB) leukemia): 0.23 µM | TGI (HL-60(TB) leukemia): 1.06 µM | GI50 (OVCAR-4 ovarian): 2.24 µM | TGI (OVCAR-4 ovarian): 22.5 µM | GI50 (TK-10 renal): 9.49 µM | TGI (TK-10 renal): 34.2 µM | GI50 (A549 NSCLC): 0.724 µM | TGI (A549 NSCLC): 21.6 µM | GI50 (RXF 393 renal): 0.234 µM | TGI (RXF 393 renal): 0.628 µM | GI50 (MALME-3M melanoma): 0.431 µM | TGI (MALME-3M melanoma): 21 µM | GI50 (CAKI-1 renal): 0.381 µM | TGI (CAKI-1 renal): 16.7 µM | GI50 (UACC-257 melanoma): 14.3 µM | TGI (UACC-257 melanoma): 42.1 µM | GI50 (HOP-92 NSCLC): 1.13 µM | TGI (HOP-92 NSCLC): 11.1 µM | GI50 (HCC-2998 colon): 1.03 µM | TGI (HCC-2998 colon): 7.39 µM | GI50 (COLO 205 colon): 0.933 µM | TGI (COLO 205 colon): 8.68 µM | GI50 (SF-539 CNS): 0.297 µM | TGI (SF-539 CNS): 1.24 µM | GI50 (786-0 renal): 0.621 µM | TGI (786-0 renal): 14.6 µM | GI50 (MCF7 breast): 0.322 µM | TGI (MCF7 breast): 12.2 µM | GI50 (MOLT-4 leukemia): 0.524 µM | TGI (MOLT-4 leukemia): 9.43 µM | GI50 (OVCAR-8 ovarian): 0.547 µM | TGI (OVCAR-8 ovarian): 17.4 µM | GI50 (KM12 colon): 0.46 µM | TGI (KM12 colon): 14.5 µM | GI50 (NCI-H522 lung): 0.369 µM | TGI (NCI-H522 lung): 6.01 µM | GI50 (LOX IMVI melanoma): 0.592 µM | TGI (LOX IMVI melanoma): 10.8 µM | GI50 (HCT-15 colon): 0.408 µM | TGI (HCT-15 colon): 7.32 µM | GI50 (T-47D breast): 0.552 µM | TGI (T-47D breast): 43.7 µM | GI50 (SNB-75 CNS): 0.221 µM | TGI (SNB-75 CNS): 0.709 µM | GI50 (NCI-H226 lung): 0.59 µM | TGI (NCI-H226 lung): 15.8 µM | GI50 (SK-MEL-5 melanoma): 0.427 µM | TGI (SK-MEL-5 melanoma): 13.2 µM | GI50 (NCI-H460 lung): 0.384 µM | TGI (NCI-H460 lung): 10.6 µM | GI50 (NCI-H23 lung): 0.474 µM | TGI (NCI-H23 lung): 12.8 µM | GI50 (HCT-116 colon): 0.362 µM | TGI (HCT-116 colon): 6.96 µM | GI50 (ACHN renal): 0.757 µM | TGI (ACHN renal): 14.7 µM | GI50 (HOP-62 NSCLC): 0.544 µM | TGI (HOP-62 NSCLC): 20.8 µM | GI50 (OVCAR-3 ovarian): 0.414 µM | TGI (OVCAR-3 ovarian): 12.8 µM | GI50 (MDA-MB-231 breast): 1.22 µM | TGI (MDA-MB-231 breast): 10.6 µM | GI50 (A498 renal): 0.199 µM | TGI (A498 renal): 0.772 µM | GI50 (SK-MEL-28 melanoma): 3.83 µM | TGI (SK-MEL-28 melanoma): 21.7 µM | GI50 (SF-268 CNS): 1.2 µM | TGI (SF-268 CNS): 21.6 µM | GI50 (SNB-19 CNS): 0.52 µM | TGI (SNB-19 CNS): 15.2 µM | GI50 (SW-620 colon): 0.441 µM | TGI (SW-620 colon): 16.2 µM | GI50 (UO-31 renal): 0.34 µM | TGI (UO-31 renal): 13.5 µM | GI50 (HS 578T breast): 0.3 µM | TGI (HS 578T breast): 2.28 µM
